Source: PMC6548547 (Journal of medicinal chemistry, 2018)
“Also recorded” adds a separate entry of the source. Like-named read-outs stand apart in the source and are kept apart here.

Key:
fibroblasts = assay type: cell-based
Ebola VLP = assay type: cell-based, Ebola virus
EBOV = details: cited from earlier work
recombinant cathepsin L = recombinant cathepsin L (Homo sapiens, UniProt P07711); test: Cathepsin L assay; assay type: biochemical; details: 10 μM and dose-response
recombinant cathepsin B = recombinant cathepsin B (Homo sapiens, UniProt P07858); test: Cathepsin B assay; assay type: biochemical; details: 10 μM and dose-response
NPC1 protein = assay type: cell-based
[1] = read-out: IC50 of previously reported EBOV inhibitors in vitro

Sequence of recombinant cathepsin L (P07711 114-333): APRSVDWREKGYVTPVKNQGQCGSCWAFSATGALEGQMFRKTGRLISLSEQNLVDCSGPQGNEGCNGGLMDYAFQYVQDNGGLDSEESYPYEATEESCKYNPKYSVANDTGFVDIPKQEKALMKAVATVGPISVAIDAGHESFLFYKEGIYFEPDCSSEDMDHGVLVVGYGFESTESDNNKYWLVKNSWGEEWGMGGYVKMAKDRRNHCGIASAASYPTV

| SMILES | LysoTracker staining (enlargement of lysosome size) (fibroblasts) | further results |
| --- | --- | --- |
| CC(C)(C)c1ccc(C(=O)CCCN2CCC(OC(c3ccccc3)c3ccccc3)CC2)cc1 [Ebastine] | increased LysoTracker staining | – |
| CC[C@]1(O)C[C@@H]2CN(CCc3c([nH]c4ccccc34)[C@@](C(=O)OC)(c3cc4c(cc3OC)N(C)[C@H]3[C@@](O)(C(N)=O)[C@H](O)[C@]5(CC)C=CCN6CC[C@]43[C@@H]65)C2)C1 [Vindesine] | – | Potency (Ebola VLP): nanomolar range |
| CCN(CC)CCNC(=O)c1c(C)[nH]c(/C=C2\C(=O)Nc3ccc(F)cc32)c1C [sunitinib] | – | IC50 (EBOV; [1]): 1910 nM |
| COc1cc2nc(N3CCCN(C)CC3)nc(NC3CCN(Cc4ccccc4)CC3)c2cc1OC [BIX-01294] | increased LysoTracker staining | Potency (Ebola VLP): nanomolar range; also recorded: sub-micromolar |
| COc1ccc2cc1Oc1ccc(cc1)C[C@H]1c3cc(c(OC)cc3CCN1C)Oc1c(OC)c(OC)cc3c1[C@H](C2)N(C)CC3 [Tetrandrine] | increased LysoTracker staining | – |
| COC(=O)Nc1nc2ccc(C(=O)c3cccs3)cc2[nH]1 [nocodazole] | – | IC50 of previously reported EBOV inhibitors in vitro (EBOV): sub-micromolar |
| COc1cc2c(Oc3ccc4[nH]c(C)cc4c3F)ncnc2cc1OCCCN1CCCC1 [Cediranib] | increased LysoTracker staining | – |
| Cc1ccc(CN2CCCN(C)C3(CCN(C)CC3)C2)cc1C [ZINC67869167] | increased LysoTracker staining; also recorded: induced enlargement of lysosomes | – |
| CC[C@]1(O)C[C@@H]2CN(CCc3c([nH]c4ccccc34)[C@@](C(=O)OC)(c3cc4c(cc3OC)N(C)[C@H]3[C@@](O)(C(=O)OC)[C@H](OC(C)=O)[C@]5(CC)C=CCN6CC[C@]43[C@@H]65)C2)C1 [Vinblastine] | – | IC50 (EBOV; read-out: Published Compound (IC50)): 48 nM |
| CN(C)c1ccccc1CN1CCCN(Cc2ccccc2N(C)C)C1c1ccncc1 [GANT61] | increased LysoTracker staining; also recorded: caused enlargement of lysosomes | Inhibition of enzymatic activity of cathepsin L (recombinant cathepsin L): inhibited; Inhibition of enzymatic activity of cathepsin B (recombinant cathepsin B): inhibited |
| Cc1cn(-c2cc(NC(=O)c3ccc(C)c(Nc4nccc(-c5cccnc5)n4)c3)cc(C(F)(F)F)c2)cn1 [nilotinib] | – | IC50 (EBOV; [1]): 24300 nM |
| CCN(CC)CCO[C@H]1CC[C@@]2(C)C(=CC[C@@H]3[C@@H]2CC[C@]2(C)C(=O)CC[C@@H]32)C1.Cl [U18666A, 3-β-(2-[diethylamino]ethoxy)-androst-5-en-17-one, monohydrochloride] | increased LysoTracker staining | Cholesterol accumulation (filipin staining), impairment of NPC1 protein function (NPC1 protein): increased filipin staining |
| CC(=O)N(C)C1(c2ccccc2)CCN(CCC[C@]2(c3ccc(Cl)c(Cl)c3)CCCN(C(=O)c3ccccc3)C2)CC1 [Osanetant] | increased LysoTracker staining; also recorded: induces the enlargement of lysosomes | – |
| CN1[C@@H]2CC[C@H]1C[C@@H](OC1c3ccccc3CCc3ccccc31)C2 [Deptropine] | increased LysoTracker staining | Inhibition of enzymatic activity of cathepsin L (recombinant cathepsin L): inhibited; also recorded: blocking cathepsin L activity |
| Cc1[nH]c2c(CN3CC(CO)C(CN4CCCC4)C3)cccc2c1C (centres unmarked) [ZINC91973695] | increased LysoTracker staining; also recorded: induced enlargement of lysosomes | – |
